From BindingDB's records for doi:10.1021/jm00055a007 (Abbott Laboratories, 1993) come the findings set out here.

Square brackets hold non-standard residues; d marks the D form. Peptide text beside a SMILES is read from it. 1Nal = N[C@@H](Cc1cccc2ccccc12)C(=O)O; pGlu = O=C1CC[C@@H](C(=O)O)N1; NMeS = CN[C@@H](CO)C(=O)O

As usually defined, the Ki is a dissociation constant, usually derived from enzyme kinetics or from competition with a known ligand. A lower Ki goes with a stronger hold on the target.

The target of this assay is Gonadotropin-releasing hormone receptor (Rattus norvegicus) (UniProt P30969).
Chain of Gonadotropin-releasing hormone receptor (Rattus norvegicus) (P30969 whole entry, looked up): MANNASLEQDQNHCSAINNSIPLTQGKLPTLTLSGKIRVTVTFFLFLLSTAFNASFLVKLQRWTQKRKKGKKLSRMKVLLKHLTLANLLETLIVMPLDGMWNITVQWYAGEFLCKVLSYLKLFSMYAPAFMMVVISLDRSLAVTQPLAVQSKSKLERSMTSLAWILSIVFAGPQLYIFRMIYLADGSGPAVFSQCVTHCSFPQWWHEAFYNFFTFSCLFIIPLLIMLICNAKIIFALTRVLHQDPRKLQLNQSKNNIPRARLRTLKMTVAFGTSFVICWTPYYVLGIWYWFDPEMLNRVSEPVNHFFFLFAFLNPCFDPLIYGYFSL
`CC(C)C[C@H](NC(=O)CNC(=O)[C@H](Cc1ccc(O)cc1)NC(=O)[C@H](CO)NC(=O)[C@H](Cc1c[nH]c2ccccc12)NC(=O)[C@H](Cc1cnc[nH]1)NC(=O)[C@@H]1CCC(=O)N1)C(=O)N[C@@H](CCCN=C(N)N)C(=O)N1CCC[C@H]1C(=O)NCC(=O)O` [CAS_35263-73-1] gave a Ki of 1.26 nM. Under `CCNC(=O)[C@@H]1CCCN1C(=O)[C@H](CCCN=C(N)N)NC(=O)[C@H](CC(C)C)NC(=O)[C@@H](Cc1c[nH]c2ccccc12)NC(=O)[C@H](Cc1ccc(O)cc1)NC(=O)[C@H](CO)NC(=O)[C@H](Cc1c[nH]c2ccccc12)NC(=O)[C@H](Cc1cnc[nH]1)N(C)C(=O)[C@@H]1CCC(=O)N1` [deslorelin 2NMeHis] stands 1.41 nM.

For the compound `CCNC(=O)[C@@H]1CCCN1C(=O)[C@H](CCCN=C(N)N)NC(=O)[C@H](CC(C)C)NC(=O)[C@@H](Cc1c[nH]c2ccccc12)NC(=O)[C@H](Cc1ccc(O)cc1)NC(=O)[C@H](CO)NC(=O)[C@H](Cc1cccc2ccccc12)N(C)C(=O)[C@H](Cc1c[nH]cn1)NC(=O)[C@@H]1CCC(=O)N1` [deslorelin 3NMe1Nal], the Ki is 1 nM. `CCNC(=O)[C@@H]1CCCN1C(=O)[C@H](CCCN=C(N)N)NC(=O)[C@H](CC(C)C)NC(=O)[C@@H](Cc1c[nH]c2ccccc12)NC(=O)[C@H](Cc1ccc(O)cc1)N(C)C(=O)[C@H](CO)NC(=O)[C@H](Cc1c[nH]c2ccccc12)NC(=O)[C@H](Cc1c[nH]cn1)NC(=O)[C@@H]1CCC(=O)N1` [deslorelin 5NMeTyr]: the Ki came to 0.09 nM. Compared with the last compound, the Ki is about 11-fold lower. For `CCNC(=O)[C@@H]1CCCN1C(=O)[C@H](CCCN=C(N)N)NC(=O)[C@H](CC(C)C)N(C)C(=O)[C@@H](Cc1c[nH]c2ccccc12)NC(=O)[C@H](Cc1ccc(O)cc1)NC(=O)[C@H](CO)NC(=O)[C@H](Cc1c[nH]c2ccccc12)NC(=O)[C@H](Cc1cnc[nH]1)NC(=O)[C@@H]1CCC(=O)N1` [deslorelin 7NMeLeu] the value was 0.06 nM.

`CCNC(=O)[C@@H]1CCCN1C(=O)[C@H](CCCN=C(N)N)N(C)C(=O)[C@H](CC(C)C)NC(=O)[C@@H](Cc1c[nH]c2ccccc12)NC(=O)[C@H](Cc1ccc(O)cc1)NC(=O)[C@H](CO)NC(=O)[C@H](Cc1c[nH]c2ccccc12)NC(=O)[C@H](Cc1cnc[nH]1)NC(=O)[C@@H]1CCC(=O)N1` [deslorelin 8NMeArg] registered an inhibitory constant (Ki) of 0.31 nM.

In turn, `CC(C)C[C@H](NC(=O)[C@@H](Cc1c[nH]c2ccccc12)NC(=O)[C@H](Cc1ccc(O)cc1)NC(=O)[C@H](CO)NC(=O)[C@H](Cc1c[nH]c2ccccc12)NC(=O)[C@H](Cc1c[nH]cn1)NC(=O)[C@@H]1CCC(=O)N1)C(=O)N[C@@H](CCCN=C(N)N)C(=O)N1CCC[C@H]1C(=O)N(C)CC(N)=O` [deslorelin 10SarNH2] yielded a Ki of 0.32 nM. For `CCNC(=O)[C@@H]1CCCN1C(=O)[C@H](CCCN=C(N)N)NC(=O)[C@H](CC(C)C)NC(=O)[C@@H](Cc1c[nH]c2ccccc12)NC(=O)[C@H](Cc1ccc(O)cc1)NC(=O)[C@H](CO)NC(=O)[C@H](Cc1cccc2ccccc12)NC(=O)[C@H](Cc1cnc[nH]1)NC(=O)[C@@H]1CCC(=O)N1` [deslorelin 31Nal] the value was 0.02 nM; for `CCNC(=O)[C@@H]1CCCN1C(=O)[C@H](CCCN=C(N)N)NC(=O)[C@H](CC(C)C)NC(=O)[C@@H](Cc1c[nH]c2ccccc12)NC(=O)[C@H](Cc1ccc(O)cc1)NC(=O)[C@H](CO)NC(=O)[C@H](Cc1c[nH]c2ccccc12)NC(=O)[C@H](Cc1cnc[nH]1)NC(=O)[C@@H]1CCC(=O)N1` [deslorelin], 0.01 nM; for `CCNC(=O)[C@@H]1CCCN1C(=O)[C@H](CCCN=C(N)N)NC(=O)[C@H](CC(C)C)NC(=O)[C@@H](CC(C)C)NC(=O)[C@H](Cc1ccc(O)cc1)NC(=O)[C@H](CO)NC(=O)[C@H](Cc1c[nH]c2ccccc12)NC(=O)[C@H](Cc1cnc[nH]1)N(C)C(=O)[C@@H]1CCC(=O)N1` [leuprolide 2 NMeHis], 33.1 nM. Under `CCNC(=O)[C@@H]1CCCN1C(=O)[C@H](CCCN=C(N)N)NC(=O)[C@H](CC(C)C)NC(=O)[C@@H](CC(C)C)NC(=O)[C@H](Cc1ccc(O)cc1)NC(=O)[C@H](CO)NC(=O)[C@H](Cc1c[nH]c2ccccc12)NC(=O)[C@H](Cc1ccccc1)NC(=O)[C@@H]1CCC(=O)N1` [leuprolide 2 Phe] ([pGlu]FWSY[dL]LRP-NHEt) stands 2.19 nM; under `CCNC(=O)[C@@H]1CCCN1C(=O)[C@H](CCCN=C(N)N)NC(=O)[C@H](CC(C)C)NC(=O)[C@@H](CC(C)C)NC(=O)[C@H](Cc1ccc(O)cc1)NC(=O)[C@H](CO)NC(=O)[C@H](Cc1c[nH]c2ccccc12)NC(=O)[C@H](Cc1ccccc1)N(C)C(=O)[C@@H]1CCC(=O)N1` [leuprolide 2NMePhe], 12 nM. Compound `CCNC(=O)[C@@H]1CCCN1C(=O)[C@H](CCCN=C(N)N)NC(=O)[C@H](CC(C)C)NC(=O)[C@@H](CC(C)C)NC(=O)[C@H](Cc1ccc(O)cc1)NC(=O)[C@H](CO)NC(=O)[C@H](Cc1cccc2ccccc12)N(C)C(=O)[C@H](Cc1c[nH]cn1)NC(=O)[C@@H]1CCC(=O)N1` [leuprolide 3NMe1Nal] gave a Ki of 3.24 nM. For `CCNC(=O)[C@@H]1CCCN1C(=O)[C@H](CCCN=C(N)N)NC(=O)[C@H](CC(C)C)NC(=O)[C@@H](CC(C)C)NC(=O)[C@H](Cc1ccc(O)cc1)NC(=O)[C@H](CO)N(C)C(=O)[C@H](Cc1c[nH]c2ccccc12)NC(=O)[C@H](Cc1c[nH]cn1)NC(=O)[C@@H]1CCC(=O)N1` [leuprolide 4NMeSer] ([pGlu]HW[NMeS]Y[dL]LRP-NHEt) the value was 1.41 nM. Compound `CCNC(=O)[C@@H]1CCCN1C(=O)[C@H](CCCN=C(N)N)NC(=O)[C@H](CC(C)C)NC(=O)[C@@H](CC(C)C)N(C)C(=O)[C@H](Cc1ccc(O)cc1)NC(=O)[C@H](CO)NC(=O)[C@H](Cc1c[nH]c2ccccc12)NC(=O)[C@H](Cc1cnc[nH]1)NC(=O)[C@@H]1CCC(=O)N1` [leuprolide 6NMeDLeu] had a Ki of 3.8 nM. Under `CCNC(=O)[C@@H]1CCCN1C(=O)[C@H](CCCN=C(N)N)NC(=O)[C@H](CC(C)C)N(C)C(=O)[C@@H](CC(C)C)NC(=O)[C@H](Cc1ccc(O)cc1)NC(=O)[C@H](CO)NC(=O)[C@H](Cc1c[nH]c2ccccc12)NC(=O)[C@H](Cc1c[nH]cn1)NC(=O)[C@@H]1CCC(=O)N1` [leuprolide 7NMeLeu] stands 0.16 nM; under `CCNC(=O)[C@@H]1CCCN1C(=O)[C@H](CCCN=C(N)N)N(C)C(=O)[C@H](CC(C)C)NC(=O)[C@@H](CC(C)C)NC(=O)[C@H](Cc1ccc(O)cc1)NC(=O)[C@H](CO)NC(=O)[C@H](Cc1c[nH]c2ccccc12)NC(=O)[C@H](Cc1c[nH]cn1)NC(=O)[C@@H]1CCC(=O)N1` [leuprolide 8NMeArg], 347 nM; under `CCNC(=O)[C@@H]1CCCN1C(=O)[C@H](CCCN=C(N)N)NC(=O)[C@H](CC(C)C)NC(=O)[C@@H](CC(C)C)NC(=O)[C@H](Cc1ccc(O)cc1)NC(=O)[C@H](CO)NC(=O)[C@H](Cc1cccc2ccccc12)NC(=O)[C@H](Cc1c[nH]cn1)NC(=O)[C@@H]1CCC(=O)N1` [leuprolide 31Nal] ([pGlu]H[1Nal]SY[dL]LRP-NHEt), 0.09 nM.

The compound `CC(C)C[C@H](NC(=O)[C@@H](Cc1ccc2ccccc2c1)NC(=O)[C@H](Cc1ccc(O)cc1)NC(=O)[C@H](CO)NC(=O)[C@H](Cc1c[nH]c2ccccc12)NC(=O)[C@H](Cc1cnc[nH]1)N(C)C(=O)[C@@H]1CCC(=O)N1)C(=O)N[C@@H](CCCN=C(N)N)C(=O)N1CCC[C@H]1C(=O)NCC(N)=O` [nafarelin 2NMeHis] came in with an inhibitory constant (Ki) of 1.41 nM. Against the preceding compound, the Ki is about 16-fold higher.

`CC(C)C[C@H](NC(=O)[C@@H](Cc1ccc2ccccc2c1)NC(=O)[C@H](Cc1ccc(O)cc1)NC(=O)[C@H](CO)NC(=O)[C@H](Cc1c[nH]c2ccccc12)NC(=O)[C@H](Cc1ccccc1)N(C)C(=O)[C@@H]1CCC(=O)N1)C(=O)N[C@@H](CCCN=C(N)N)C(=O)N1CCC[C@H]1C(=O)NCC(N)=O` [nafarelin 2NMePhe] returned an inhibition constant (Ki) of 0.3 nM. Under `CC(C)C[C@H](NC(=O)[C@@H](Cc1ccc2ccccc2c1)NC(=O)[C@H](Cc1ccc(O)cc1)NC(=O)[C@H](CO)NC(=O)[C@H](Cc1c[nH]c2ccccc12)NC(=O)[C@H](Cc1ccccc1)NC(=O)[C@@H]1CCC(=O)N1)C(=O)N[C@@H](CCCN=C(N)N)C(=O)N1CCC[C@H]1C(=O)NCC(N)=O` [nafarelin 2Phe] stands 0.07 nM. Under `CC(C)C[C@H](NC(=O)[C@@H](Cc1ccc2ccccc2c1)NC(=O)[C@H](Cc1ccc(O)cc1)NC(=O)[C@H](CO)NC(=O)[C@H](Cc1cccc2ccccc12)N(C)C(=O)[C@H](Cc1cnc[nH]1)NC(=O)[C@@H]1CCC(=O)N1)C(=O)N[C@@H](CCCN=C(N)N)C(=O)N1CCC[C@H]1C(=O)NCC(N)=O` [nafarelin 3NMe1Nal] stands 0.74 nM; under `CC(C)C[C@H](NC(=O)[C@@H](Cc1ccc2ccccc2c1)NC(=O)[C@H](Cc1ccc(O)cc1)NC(=O)[C@H](CO)N(C)C(=O)[C@H](Cc1c[nH]c2ccccc12)NC(=O)[C@H](Cc1c[nH]cn1)NC(=O)[C@@H]1CCC(=O)N1)C(=O)N[C@@H](CCCN=C(N)N)C(=O)N1CCC[C@H]1C(=O)NCC(N)=O` [nafarelin 4NMeSer], 0.04 nM; under `CC(C)C[C@H](NC(=O)[C@@H](Cc1ccc2ccccc2c1)NC(=O)[C@H](Cc1ccc(O)cc1)N(C)C(=O)[C@H](CO)NC(=O)[C@H](Cc1c[nH]c2ccccc12)NC(=O)[C@H](Cc1c[nH]cn1)NC(=O)[C@@H]1CCC(=O)N1)C(=O)N[C@@H](CCCN=C(N)N)C(=O)N1CCC[C@H]1C(=O)NCC(N)=O` [nafarelin 5NMeTyr], 0.03 nM.

As for `CC(C)C[C@H](NC(=O)[C@@H](Cc1ccc2ccccc2c1)N(C)C(=O)[C@H](Cc1ccc(O)cc1)NC(=O)[C@H](CO)NC(=O)[C@H](Cc1c[nH]c2ccccc12)NC(=O)[C@H](Cc1c[nH]cn1)NC(=O)[C@@H]1CCC(=O)N1)C(=O)N[C@@H](CCCN=C(N)N)C(=O)N1CCC[C@H]1C(=O)NCC(N)=O` [nafarelin 6NMe2Nal], the Ki was determined as 2.69 nM.

The compound `CC(C)C[C@@H](C(=O)N[C@@H](CCCN=C(N)N)C(=O)N1CCC[C@H]1C(=O)NCC(N)=O)N(C)C(=O)[C@@H](Cc1ccc2ccccc2c1)NC(=O)[C@H](Cc1ccc(O)cc1)NC(=O)[C@H](CO)NC(=O)[C@H](Cc1c[nH]c2ccccc12)NC(=O)[C@H](Cc1c[nH]cn1)NC(=O)[C@@H]1CCC(=O)N1` [nafarelin 7NMeLeu] yielded an inhibition constant (Ki) of 0.03 nM.
